Laboratory results taken from PubChem BioAssay AID1259407 (Chemical Carcinogenesis Research Information System (CCRIS), 2018).
Active and inactive are the calls of the source. No rule for the calls is given here.

Tested on: CCRIS mutagenicity, Ames/micronucleus/aberration tests
Assay: CCRIS mutagenicity studies

CC1(C)C(C=C(Cl)Cl)C1C(=O)OC(C#N)c1ccc(F)c(Oc2ccccc2)c1 (configuration not stated)
mutagenic call (End Point: In vitro chromosomal aberrations, Test System: Human lymphocytes, Metabolic Activation: Male Sprague-Dawley rat, liver, S-9, Aroclor 1254): inactive; negative
mutagenic call (End Point: In vitro chromosomal aberrations, Test System: Human lymphocytes, Metabolic Activation: None): inactive; negative
mutagenic call (End Point: In vitro chromosomal aberrations, Test System: Human lymphocytes, Metabolic Activation: S-9 (No details given by DPR evaluator)): inactive; negative
mutagenic call (End Point: In vivo micronucleus, Test System: Bone marrow erythrocytes, Strain/Indicator: Bor:NMRI (SPF Han)/ Female, Species: Mouse, Route: Oral): inactive; negative (no significant effect on frequency of micronucleated polychromatic ery
mutagenic call (End Point: In vivo micronucleus, Test System: Bone marrow erythrocytes, Strain/Indicator: Bor:NMRI (SPF Han)/ Male, Species: Mouse, Route: Oral): inactive; negative (no significant effect on frequency of micronucleated polychromatic ery
mutagenic call (Test System: Ames Salmonella typhimurium, Strain/Indicator: TA98, Metabolic Activation: None, Method: Plate incorporation): inactive; negative
mutagenic call (Test System: Ames Salmonella typhimurium, Strain/Indicator: TA98, Metabolic Activation: S-9 (Additional details not given by DPR evaluator), Method: Plate incorporation): inactive; negative
mutagenic call (Test System: Ames Salmonella typhimurium, Strain/Indicator: TA100, Metabolic Activation: None, Method: Plate incorporation): inactive; negative
mutagenic call (Test System: Ames Salmonella typhimurium, Strain/Indicator: TA100, Metabolic Activation: S-9 (Additional details not given by DPR evaluator), Method: Plate incorporation): inactive; negative
mutagenic call (Test System: Ames Salmonella typhimurium, Strain/Indicator: TA1535, Metabolic Activation: None, Method: Plate incorporation): inactive; negative
mutagenic call (Test System: Ames Salmonella typhimurium, Strain/Indicator: TA1535, Metabolic Activation: S-9 (Additional details not given by DPR evaluator), Method: Plate incorporation): inactive; negative
mutagenic call (Test System: Ames Salmonella typhimurium, Strain/Indicator: TA1537, Metabolic Activation: None, Method: Plate incorporation): inactive; negative
mutagenic call (Test System: Ames Salmonella typhimurium, Strain/Indicator: TA1537, Metabolic Activation: S-9 (Additional details not given by DPR evaluator), Method: Plate incorporation): inactive; negative
mutagenic call (Test System: CHO-HGPRT, Strain/Indicator: CHO-Ki-BH4 cells, Metabolic Activation: None, Method: Forward mutation assay): inactive; negative
mutagenic call (Test System: CHO-HGPRT, Strain/Indicator: CHO-Ki-BH4 cells, Metabolic Activation: S-9 (No additional details presented by DPR evaluator), Method: Forward mutation assay): inactive; negative
mutagenic call (Test System: UDS Rat hepatocytes, Strain/Indicator: Thymidine incorporation, Metabolic Activation: None, Method: Autoradiography): inactive; negative

COC(=O)C12C[C@@]1(C=O)C(C=O)=C[C@@H]1CC(C)(C)C[C@@H]12 (some centres not stated)
mutagenic call (Test System: AMES SALMONELLA TYPHIMURIUM, Strain/Indicator: TA98, Metabolic Activation: NONE, Method: STANDARD PLATE): active; positive
mutagenic call (Test System: AMES SALMONELLA TYPHIMURIUM, Strain/Indicator: TA100, Metabolic Activation: NONE, Method: STANDARD PLATE): active; positive
mutagenic call (Test System: AMES SALMONELLA TYPHIMURIUM, Strain/Indicator: TA2637, Metabolic Activation: NONE, Method: STANDARD PLATE): active; positive

Cc1c(C)c(Br)c(Br)c(Br)c1Br
mutagenic call (Test System: AMES SALMONELLA TYPHIMURIUM, Strain/Indicator: TA98, Metabolic Activation: HAMSTER, LIVER, S-9, AROCLOR 1254 (10%), Method: PREINCUBATION): inactive; negative
mutagenic call (Test System: AMES SALMONELLA TYPHIMURIUM, Strain/Indicator: TA98, Metabolic Activation: NONE, Method: PREINCUBATION): inactive; negative
mutagenic call (Test System: AMES SALMONELLA TYPHIMURIUM, Strain/Indicator: TA98, Metabolic Activation: RAT, LIVER, S-9, AROCLOR 1254 (10%), Method: PREINCUBATION): inactive; negative
mutagenic call (Test System: AMES SALMONELLA TYPHIMURIUM, Strain/Indicator: TA100, Metabolic Activation: HAMSTER, LIVER, S-9, AROCLOR 1254 (10%), Method: PREINCUBATION): inactive; negative
mutagenic call (Test System: AMES SALMONELLA TYPHIMURIUM, Strain/Indicator: TA100, Metabolic Activation: NONE, Method: PREINCUBATION): inactive; negative
mutagenic call (Test System: AMES SALMONELLA TYPHIMURIUM, Strain/Indicator: TA100, Metabolic Activation: RAT, LIVER, S-9, AROCLOR 1254 (10%), Method: PREINCUBATION): inactive; negative
mutagenic call (Test System: AMES SALMONELLA TYPHIMURIUM, Strain/Indicator: TA1535, Metabolic Activation: HAMSTER, LIVER, S-9, AROCLOR 1254 (10%), Method: PREINCUBATION): inactive; negative
mutagenic call (Test System: AMES SALMONELLA TYPHIMURIUM, Strain/Indicator: TA1535, Metabolic Activation: NONE, Method: PREINCUBATION): inactive; negative
mutagenic call (Test System: AMES SALMONELLA TYPHIMURIUM, Strain/Indicator: TA1535, Metabolic Activation: RAT, LIVER, S-9, AROCLOR 1254 (10%), Method: PREINCUBATION): inactive; negative
mutagenic call (Test System: AMES SALMONELLA TYPHIMURIUM, Strain/Indicator: TA1537, Metabolic Activation: HAMSTER, LIVER, S-9, AROCLOR 1254 (10%), Method: PREINCUBATION): inactive; negative
mutagenic call (Test System: AMES SALMONELLA TYPHIMURIUM, Strain/Indicator: TA1537, Metabolic Activation: NONE, Method: PREINCUBATION): inactive; negative
mutagenic call (Test System: AMES SALMONELLA TYPHIMURIUM, Strain/Indicator: TA1537, Metabolic Activation: RAT, LIVER, S-9, AROCLOR 1254 (10%), Method: PREINCUBATION): inactive; negative

CC/C1=C/[C@@H](C)[C@](C)(OC(C)=O)C(=O)OC/C2=C/CN(C)CC[C@@H](OC1=O)C2=O
mutagenic call (Test System: UDS RAT HEPATOCYTES, Strain/Indicator: THY INCORP, Metabolic Activation: NONE, Method: AUTORADIOGRAPHY): active; positive
